Experimental data reported in patent publication US20240417410A1, “TRICYCLIC COMPOUNDS FOR THE TREATMENT OF CANCER” (Hoffmann-La Roche Inc., priority 2023, published 2024).

Tests used:
[1] = system: phosphorylation of ERK, KRAS G12C in NCI-H358 cells; assay: pERK inhibition assay; assay type: cell-based; conditions: Homo sapiens, NCI-H358, 4 h
Method in brief: (§1)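 Cells in RPMI-1640 with 10% FBS were plated overnight (30,000/well H358, 20,000 AGS, 30,000 SW620) and treated 4 h with compounds at 0.5% DMSO. After formaldehyde fixation and methanol permeabilization, pERK was detected by in-cell ELISA with HRP secondary and TMB (OD450); IC50 from 4-parameter fit.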

[2] = system: phosphorylation of ERK, KRAS G12V in SW620; assay: pERK inhibition assay; assay type: cell-based; conditions: Homo sapiens, SW-620, 4 h, SW620 cells
Method in brief: as §1

[3] = system: phosphorylation of ERK, KRAS G12D in AGS cells; assay: pERK inhibition assay; assay type: cell-based; conditions: Homo sapiens, AGS, 4 h
Method in brief: as §1

KRAS G12C-BRAF complex = KRAS G12C-BRAF complex (Homo sapiens (Human), UniProt P01116+P62937, G12C); assay: KRAS-BRAF with CYPA (500 nM) interaction assay (TR-FRET, Example 136); assay type: biochemical; conditions: KRAS G12C-BRAF disruption
KRAS G12C-BRAF complex, sequence (P01116-2 other isoform, or with tags, fused parts or gaps G12C): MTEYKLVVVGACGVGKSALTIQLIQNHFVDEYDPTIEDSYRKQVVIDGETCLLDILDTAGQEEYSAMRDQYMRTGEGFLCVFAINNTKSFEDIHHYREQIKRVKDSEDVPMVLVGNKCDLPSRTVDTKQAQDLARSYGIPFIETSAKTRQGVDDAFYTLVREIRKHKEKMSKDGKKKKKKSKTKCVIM
KRAS G12C-BRAF complex, sequence (P62937 whole entry): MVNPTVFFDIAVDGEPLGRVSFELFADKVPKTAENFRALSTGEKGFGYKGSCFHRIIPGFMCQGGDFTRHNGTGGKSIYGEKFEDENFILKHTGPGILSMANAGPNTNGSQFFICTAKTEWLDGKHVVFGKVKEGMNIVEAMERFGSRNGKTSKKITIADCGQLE

AGS cells (KRAS G12D) = assay: Cell viability assay (Cell Counting Kit-8, 3-day); assay type: cell-based, human; conditions: Homo sapiens, 72 h, 72 hrs incubation
Method in brief: (§2)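 72-hr compound treatment, 0.5% DMSO final; NCI-H358 seeded 5,000 cells/well, AGS and SW620 2,000 cells/well. Endpoint: CCK-8, 2-hr development, OD450 minus OD650.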

[4] = system: NCI-H358 cells (KRAS G12C); assay: Cell viability assay (Cell Counting Kit-8, 3-day); assay type: cell-based, human; conditions: Homo sapiens, NCI-H358, 72 h, NCI-H358, 72 hrs incubation
Method in brief: as §2

SW620 cells (KRAS G12V) = assay: Cell viability assay (Cell Counting Kit-8, 3-day); assay type: cell-based, human; conditions: Homo sapiens, SW-620; SW620, 72 hrs incubation
Method in brief: as §2

| SMILES | IC50 [1] [nM] | IC50 [2] [nM] | IC50 [3] [nM] | IC50 (KRAS G12C-BRAF complex) [nM] | IC50 (AGS cells (KRAS G12D)) [nM] | IC50 [4] [nM] | IC50 (SW620 cells (KRAS G12V)) [nM] |
| --- | --- | --- | --- | --- | --- | --- | --- |
| CO[C@@H](C)c1ncc(N2CCN(CCCO)CC2)cc1-c1c2c3cc(cc4c3n1CCC4)-c1csc(n1)C[C@H](NC(=O)[C@H]1[C@H](C)[C@@H]1C)C(=O)N1CCC[C@H](N1)C(=O)OCC(C)(C)C2 (atropisomer, axis not shown; (M)) [Example 111, (1r,2R,3S)-N-[(7S,13S)-(20M)-20-[5-[4-(3-hydroxypropyl)piperazin-1-yl]-2-[(1S)-1-methoxyethyl]-3-pyridyl]-17,17-dimethyl-8,14-dioxo-15-oxa-4-thia-9,21,30,31-tetrazahexacyclo[23.3.1.1^2,5.1^9,13.0^19,27.0^21,26]hentriaconta-1 (28),2,5 (31), 19,25 (29),26-hexaen-7-yl]-2,3-dimethyl-cyclopropanecarboxamide] | 0.6 | 0.4 | 2 | 4.7 | 0.8 | 1 | 0.2 |
| CO[C@@H](C)c1ncc(N2CCN(C)CC2)cc1-c1c2c3cc(cc4c3n1CC(C)(C)C4)-c1csc(n1)C[C@H](NC(=O)[C@H]1[C@H](C)[C@@H]1C)C(=O)N1CCC[C@H](N1)C(=O)OCC(C)(C)C2 (atropisomer, axis not shown; (M)) [Example 69, (1r,2S,3R)-N-[(7S,13S)-(20M)-20-[2-[(1S)-1-methoxyethyl]-5-(4-methylpiperazin-1-yl)-3-pyridyl]-17,17,23,23-tetramethyl-8,14-dioxo-15-oxa-4-thia-9,21,30,31-tetrazahexacyclo[23.3.1.1^2,5.1^9,13.0^19,27.0^21,26]hentriaconta-1 (28),2,5 (31), 19,25 (29),26-hexaen-7-yl]-2,3-dimethyl-cyclopropanecarboxamide] | 1.5 | 1.5 | 11.3 | 35.7 | 75.4 | 19.2 | 4.4 |
| CO[C@@H](C)c1ncc(N2CCN(CC(F)(F)F)CC2)cc1-c1c2c3cc(cc4c3n1CCC4)-c1csc(n1)C[C@H](NC(=O)[C@H]1[C@H](C)[C@@H]1C)C(=O)N1CCC[C@H](N1)C(=O)OCC(C)(C)C2 (atropisomer, axis not shown; (M)) [Example 86, (1r,2R,3S)-N-[(7S,13S)-(20M)-20-[2-[(1S)-1-methoxyethyl]-5-[4-(2,2,2-trifluoroethyl)piperazin-1-yl]-3-pyridyl]-17,17-dimethyl-8,14-dioxo-15-oxa-4-thia-9,21,30,31-tetrazahexacyclo[23.3.1.1^2,5.1^9,13.0^19,27.0^21,26]hentriaconta-1 (28),2,5 (31),19,25 (29),26-hexaen-7-yl]-2,3-dimethyl-cyclopropanecarboxamide] | 1.8 | 0.8 | 15 | 17.9 | 45.2 | 14.1 | 2.5 |
| CO[C@@H](C)c1ncc(N2CCN(C)CC2)cc1-c1c2c3cc(cc4c3n1CCO4)-c1csc(n1)C[C@H](NC(=O)[C@@H]1C[C@H]1C1CC1)C(=O)N1CCC[C@H](N1)C(=O)OCC(C)(C)C2 (atropisomer, axis not shown; (M)) [Example 64, (1R,2S)-2-cyclopropyl-N-[(7S,13S)-(20M)-20-[2-[(1S)-1-methoxyethyl]-5-(4-methylpiperazin-1-yl)-3-pyridyl]-17,17-dimethyl-8,14-dioxo-15,24-dioxa-4-thia-9,21,30,31-tetrazahexacyclo[23.3.1.1^2,5.1^9,13.0^19,27.0^21,26]hentriaconta-1 (29),2,5 (31), 19,25,27-hexaen-7-yl]cyclopropanecarboxamide] | 1.2 | 0.6 | 3.7 | 17.2 | 21.9 | 8 | 1.3 |
| CO[C@@H](C)c1ncc(N2CCOCC2)cc1-c1c2c3cc(cc4c3n1CCO4)-c1csc(n1)C[C@H](NC(=O)[C@H]1[C@H](C)[C@@H]1C)C(=O)N1CCC[C@H](N1)C(=O)OCC(C)(C)C2 (atropisomer, axis not shown; (M)) [Example 68, (1r,2R,3S)-N-[(7S,13S)-(20M)-20-[2-[(1S)-1-methoxyethyl]-5-morpholino-3-pyridyl]-17,17-dimethyl-8,14-dioxo-15,24-dioxa-4-thia-9,21,30,31-tetrazahexacyclo[23.3.1.1^2,5.1^9,13.0^19,27.0^21,26]hentriaconta-1 (29),2,5 (31),19,25,27-hexaen-7-yl]-2,3-dimethyl-cyclopropanecarboxamide] | 0.2 | 0.3 | 3.9 | 16.8 | 7.8 | 3.2 | 0.5 |
| CO[C@@H](C)c1ncc(N2CCN(C)CC2)cc1-c1c2c3cc(cc4c3n1CCC4)-c1csc(n1)C[C@H](NC(=O)[C@@H]1C[C@H]1c1cncnc1C)C(=O)N1CCC[C@H](N1)C(=O)OCC(C)(C)C2 (atropisomer, axis not shown; (M)) [Example 112, (1R,2R)-N-[(7S,13S)-(20M)-20-[2-[(1S)-1-methoxyethyl]-5-(4-methylpiperazin-1-yl)-3-pyridyl]-17,17-dimethyl-8,14-dioxo-15-oxa-4-thia-9,21,30,31-tetrazahexacyclo[23.3.1.1^2,5.1^9,13.0^19,27.0^21,26]hentriaconta-1 (28),2,5 (31), 19,25 (29),26-hexaen-7-yl]-2-(4-methylpyrimidin-5-yl)cyclopropanecarboxamide] | 0.7 | 0.5 | 3.4 | 10.4 | 3.4 | 2.2 | 0.8 |
| CO[C@@H](C)c1ncc(N2CCOCC2)cc1-c1c2c3cc(cc4c3n1CCO4)-c1csc(n1)C[C@H](NC(=O)[C@H]1C[C@@H]1c1cncnc1)C(=O)N1CCC[C@H](N1)C(=O)OCC(C)(C)C2 (atropisomer, axis not shown; (M)) [Example 88, (1S,2S)-N-[(7S,13S)-(20M)-20-[2-[(1S)-1-methoxyethyl]-5-morpholino-3-pyridyl]-17,17-dimethyl-8,14-dioxo-15,24-dioxa-4-thia-9,21,30,31-tetrazahexacyclo[23.3.1.1^2,5.1^9,13.0^19,27.0^21,26]hentriaconta-1 (28),2,5 (31), 19,25 (29),26-hexaen-7-yl]-2-pyrimidin-5-yl-cyclopropanecarboxamide] | 0.3 | 0.2 | 1.4 | 9.7 | 4 | 2 | 0.4 |
| CO[C@@H](C)c1ncc(N2CCN(C)CC2)cc1-c1c2c3cc(cc4c3n1CCC4)-c1csc(n1)C[C@H](NC(=O)[C@H]1C[C@H]1C)C(=O)N1CCC[C@H](N1)C(=O)OCC(C)(C)C2 (atropisomer, axis not shown; (M)) [Example 33, (1S,2R)-N-[(7S,13S)-(20M)-20-[2-[(1S)-1-methoxyethyl]-5-(4-methylpiperazin-1-yl)-3-pyridyl]-17,17-dimethyl-8,14-dioxo-15-oxa-4-thia-9,21,30,31-tetrazahexacyclo[23.3.1.1^2,5.1^9,13.0^19,27.0^21,26]hentriaconta-1 (28),2,5 (31),19,25 (29),26-hexaen-7-yl]-2-methyl-cyclopropanecarboxamide] | 8.5 | 2.7 | 23.1 | 19.5 | 100 | 32.3 | 7.4 |
